Source: patent publication US12427129B2, “Application of compound amino acids in preparation of medicament for improving sensitivity of bacteria to antibiotics” (SUN YAT-SEN UNIVERSITY, priority 2020, dated 2025)
In brackets after ≈: the same amount, converted by molar mass. Like-named read-outs stand apart in the source and are kept apart here.

What was measured:
[1] = system: Escherichia coli cefazolin-resistant bacteria; assay: survival rate with single amino acids or amino acid combination in synergy with cefazolin; assay type: cell-based
Procedure: Each amino acid in 2 mM compound amino acids was added alone with a corresponding concentration, and through survival rate of bacteria, it was studied improvement on sensitivity of bacteria to antibiotics when each amino acid was in synergy with cefazolin.

[2] = system: ampicillin-resistant bacteria (K12-RAMP); assay: survival rate of bacteria, compound amino acids in synergy with ampicillin; assay type: cell-based, Escherichia coli; conditions: ampicillin 2000 μg/mL; second of 8 values, taken as ampicillin without compound amino acids
Procedure: Taking Escherichia coli sensitive bacteria K12 and artificially passaged ampicillin-resistant bacteria (K12-RAMP) as research objects, for the former, concentration of ampicillin was 40 μg/mL, and for the latter, concentration of ampicillin was 2000 μg/mL. It was investigated effects of 0.125, 0.5, 2.0, 8.0, 32, and 64 mM compound amino acids in synergy with antibiotics of the above concentrations on survival rates of sensitive bacteria and corresponding resistant bacteria.

[3] = system: Escherichia coli sensitive bacteria K12; assay: survival rate of bacteria by plate count, compound amino acids in synergy with antibiotics; assay type: cell-based; conditions: for survival rate of bacteria: first of 7 values, taken as no compound amino acids
[4] = system: balofloxacin-resistant bacteria (K12-RBLFX); assay: survival rate of bacteria, compound amino acids in synergy with balofloxacin; assay type: cell-based, Escherichia coli; conditions: balofloxacin 25 μg/mL; second of 8 values, taken as balofloxacin without compound amino acids
Procedure: Taking Escherichia coli sensitive bacteria K12 and balofloxacin-resistant artificially passaged resistant bacteria (K12-RBLFX) as research objects, for the former, concentration of balofloxacin was 0.2 μg/mL, and for the latter, concentration of balofloxacin was 25 μg/mL. It was investigated effects of compound amino acids of different concentrations in synergy with antibiotics of the above concentrations on survival rates of sensitive bacteria and corresponding resistant bacteria.

[5] = system: Escherichia coli strains clinically obtained; assay: MIC against cefazolin (NCCLS method); assay type: cell-based
From the text: (§1) Escherichia coli (E. coli) is one of the most common bacteria in clinical practice. 35 Escherichia coli strains clinically obtained were named as Y1 to Y12, Y15 to Y24, Y27, Y28, and Y30 to Y40. The minimum inhibitory concentration (MIC) of these 35 Escherichia coli strains clinically obtained against cefazolin antibiotics was detected according to the NCCLS method, at the same time, Escherichia coli sensitive bacteria K12 and cefazolin-resistant bacteria K12-RCZO were used as controls to determine the MIC.

Vibrio parahaemolyticus = assay: survival rate, compound amino acids in synergy with cefazolin; assay type: cell-based; conditions: cefazolin 80 μg/mL without compound amino acids, 6 h
Procedure: (§2) Other Gram-negative bacteria such as Vibrio alginolyticus, Vibrio parahaemolyticus, and Pseudomonas aeruginosa, and Gram-positive bacteria Bacillus subtilis were selected as research objects to investigate bactericidal effect of compound amino acids in synergy with cefazolin; among them, concentration of compound amino acids was 2 mM, concentration of cefazolin was 80 μg/mL, and incubation time was 6 h, a relative survival rate of bacteria was calculated.

Pseudomonas aeruginosa = assay: as above; assay type: cell-based; conditions: cefazolin 80 μg/mL without compound amino acids, 6 h
Procedure: as §2

Vibrio alginolyticus = assay: as above; assay type: cell-based; conditions: cefazolin 80 μg/mL without compound amino acids, 6 h
Procedure: as §2

Bacillus subtilis = assay: as above; assay type: cell-based; conditions: cefazolin 80 μg/mL without compound amino acids, 6 h
Procedure: as §2

[6] = system: resistant bacteria K12-RCZO; assay type: cell-based, Escherichia coli
Procedure: Preparation of bacterial samples: monoclonal bacteria of sensitive bacteria K12 or resistant bacteria K12-RCZO were picked and inoculated in 50 mL LB liquid medium respectively. After incubation for 17 h at 37° C. and 200 rpm, bacterial cells were collected by centrifugation at 8000 rpm for 4 min; the bacterial cells were washed twice with 0.85% normal saline, suspended in 1×M9 medium, adjusted to OD600 as 0.6, and then dispensed 5 mL into test tubes for subsequent experimental research.
Each of prepared bacterial samples was divided into 4 groups: control group, group of 2 mM 5% compound amino acids added only, and group of cefazolin antibiotics added only (a concentration being 80 μg/mL for sensitive bacteria K12, and a concentration being 2 mg/mL for resistant bacteria K12-RCZO), and group of cefazolin and 2 mM compound amino acids added. Bacteria were incubated at 37° C. and 200 rpm for 6 h, and then 100 μL was taken for doubling dilution, and 10 μL of bacterial solution was taken therefrom for plate count to calculate a survival rate of bacteria; results are shown in FIG. 3.
In order to explore the relationship between compound amino acids improving sensitivity of resistant bacteria to antibiotics and antibiotic concentration, 8 cefazolin concentration gradients (0, 62.5, 125, 250, 500, 1,000, 2,000 and 4,000 μg/mL) were set up; then, 2 mM compound amino acids were added or not added, respectively, after 6 h, plate count method was used to count viable bacteria; under the same antibiotics concentration, survival rates of bacteria when compound amino acids not added (control) and after compound amino acids added were compared.

[7] = system: Escherichia coli sensitive bacteria K12; assay: MIC against cefazolin; assay type: cell-based
From the text: as §1

[8] = system: Escherichia coli cefazolin-resistant bacteria (K12-RCZO); assay: MIC against cefazolin; assay type: cell-based
From the text: as §1

## C[C@H](N)C(=O)O [alanine]
[1]; amino acid alone at 404 μM in synergy with cefazolin
  survival rate: 73.6%

## CC1(C)S[C@@H]2[C@H](NC(=O)[C@H](N)c3ccccc3)C(=O)N2[C@H]1C(=O)O [ampicillin]
[2]
  survival rate: 87.2%
[3]; ampicillin 40 μg/mL, second of 8 values, taken as ampicillin without compound amino acids
  survival rate: 86.7%

## N=C(N)NCCC[C@H](N)C(=O)O [arginine]
[1]; amino acid alone at 140 μM in synergy with cefazolin
  survival rate: 97.3%

## N[C@@H](CC(=O)O)C(=O)O [aspartate]
[1]; amino acid alone at 56 μM in synergy with cefazolin
  survival rate: 94.5%

## CNC1CCCN(c2c(F)cc3c(=O)c(C(=O)O)cn(C4CC4)c3c2OC)C1 (centres unmarked) [balofloxacin]
[4]
  survival rate: 90.2%

## Cc1nnc(SCC2=C(C(=O)O)N3C(=O)[C@@H](NC(=O)Cn4cnnn4)[C@H]3SC2)s1 [cefazolin]
[5]; 37% of the remaining clinical Escherichia coli resistant bacteria
  MIC: > 640 µg/mL
[5]; clinical strain Y1
  MIC: 40 µg/mL (≈ 88 µM)
[5]; clinical strain Y3
  MIC: 2.5 µg/mL (≈ 5.5 µM)
[5]; clinical strain Y5
  MIC: 10 µg/mL (≈ 22 µM)
[5]; clinical strain Y6
  MIC: 40 µg/mL (≈ 88 µM)
[5]; clinical strain Y7
  MIC: 2.5 µg/mL (≈ 5.5 µM)
[5]; clinical strain Y8
  MIC: 5 µg/mL (≈ 11 µM)
[5]; clinical strain Y11
  MIC: 10 µg/mL (≈ 22 µM)
[5]; clinical strain Y12
  MIC: 40 µg/mL (≈ 88 µM)
[5]; clinical strain Y15
  MIC: 5 µg/mL (≈ 11 µM)
[5]; clinical strain Y16
  MIC: 5 µg/mL (≈ 11 µM)
[5]; clinical strain Y17
  MIC: 10 µg/mL (≈ 22 µM)
[5]; clinical strain Y18
  MIC: 20 µg/mL (≈ 44 µM)
[5]; clinical strain Y19
  MIC: 5 µg/mL (≈ 11 µM)
[5]; clinical strain Y20
  MIC: 20 µg/mL (≈ 44 µM)
[5]; clinical strain Y21
  MIC: 20 µg/mL (≈ 44 µM)
[5]; clinical strain Y22
  MIC: 5 µg/mL (≈ 11 µM)
[5]; clinical strain Y23
  MIC: 2.5 µg/mL (≈ 5.5 µM)
[5]; clinical strain Y24
  MIC: 20 µg/mL (≈ 44 µM)
[5]; clinical strain Y28
  MIC: 5120 µg/mL (≈ 11300 µM)
[5]; clinical strain Y32
  MIC: 5120 µg/mL (≈ 11300 µM)
[5]; clinical strain Y36
  MIC: 5120 µg/mL (≈ 11300 µM)
[5]; clinical strain Y40
  MIC: 20 µg/mL (≈ 44 µM)
Vibrio parahaemolyticus
  survival rate: 79.3%
Pseudomonas aeruginosa
  survival rate: 85.9%
Vibrio alginolyticus
  survival rate: 62.1%
Bacillus subtilis
  survival rate: 58.0%
[6]; as printed in b79: K12-RCZO, compound amino acids 0 mM, 1000 μg/mL cefazolin (results of FIG. 4)
  survival rate of bacteria: 89.6%
[6]; cefazolin 62.5 μg/mL, compound amino acids not added, 6 h
  survival rate of bacteria: 87.5%
[6]; cefazolin 125 μg/mL, compound amino acids not added, 6 h
  survival rate of bacteria: 96.9%
[6]; cefazolin 250 μg/mL, compound amino acids not added, 6 h
  survival rate of bacteria: 83.3%
[6]; cefazolin 500 μg/mL, compound amino acids not added, 6 h
  survival rate of bacteria: 78.6%
[6]; cefazolin 1,000 μg/mL, compound amino acids 0 mM, 6 h
  survival rate: 92.6%
[6]; cefazolin 1,000 μg/mL, compound amino acids not added, 6 h
  survival rate of bacteria: 83.3%
[6]; cefazolin 2,000 μg/mL, compound amino acids not added, 6 h
  survival rate of bacteria: 84.4%
[6]; cefazolin 4,000 μg/mL, compound amino acids not added, 6 h
  survival rate of bacteria: 69.8%
[3]; cefazolin 80 μg/mL, compound amino acids 0 mM, 6 h
  survival rate: 89.6%
[7]
  MIC: 1.25 µg/mL (≈ 2.75 µM)
[8]; Escherichia coli, read-out: MIC against cefazolin
  MIC: 80 µg/mL (≈ 176 µM)
[8]; K12-RCZO vs K12
  MIC relative to that of the starting strain: 64 times
[1]; M9 control group with antibiotics added (1 mg/mL cefazolin), 6 h
  survival rate of bacteria: 45.9%
[1]; only cefazolin is added
  survival rate of bacteria: 85.04%

## CO/N=C(\C(=O)N[C@@H]1C(=O)N2C(C(=O)O)=C(CSC(=O)c3ccco3)CS[C@H]12)c1csc(N)n1 [ceftiofur]
[3]; ceftiofur 200 μg/mL, 6 h
  survival rate of bacteria: 61.9%

## CO/N=C(\C(=O)N[C@@H]1C(=O)N2C(C(=O)O)=C(CSc3nc(=O)c(=O)[nH]n3C)CS[C@H]12)c1csc(N)n1 [ceftriaxone]
[3]; ceftriaxone 10 μg/mL, 6 h
  survival rate of bacteria: 73.1%

## N[C@@H](CSSC[C@H](N)C(=O)O)C(=O)O [cystine]
[1]; amino acid alone at 4 μM in synergy with cefazolin
  survival rate: 94.1%

## N[C@@H](CCC(=O)O)C(=O)O [glutamic acid]
[1]; amino acid alone at 85 μM in synergy with cefazolin
  survival rate: 94.5%

## NCC(=O)O [glycine]
[1]; amino acid alone at 233 μM in synergy with cefazolin
  survival rate: 71.4%

## N[C@@H](Cc1c[nH]cn1)C(=O)O [histidine]
[1]; amino acid alone at 96 μM in synergy with cefazolin
  survival rate: 97.6%

## CC[C@H](C)[C@H](N)C(=O)O [isoleucine]
[1]; amino acid alone at 95 μM in synergy with cefazolin
  survival rate: 69.6%

## CC(C)C[C@H](N)C(=O)O [leucine]
[1]; amino acid alone at 129 μM in synergy with cefazolin
  survival rate: 75.7%

## CC(=O)O.NCCCC[C@H](N)C(=O)O [lysine acetate]
[1]; amino acid alone at 133 μM in synergy with cefazolin
  survival rate: 68.6%

## CSCC[C@H](N)C(=O)O [methionine]
[1]; amino acid alone at 83 μM in synergy with cefazolin
  survival rate: 91.5%

## N[C@@H](Cc1ccccc1)C(=O)O [phenylalanine]
[1]; amino acid alone at 106 μM in synergy with cefazolin
  survival rate: 98.8%

## O=C(O)[C@@H]1CCCN1 [proline]
[1]; amino acid alone at 126 μM in synergy with cefazolin
  survival rate: 85.4%

## N[C@@H](CO)C(=O)O [serine]
[1]; amino acid alone at 47 μM in synergy with cefazolin
  survival rate: 67.9%

## C[C@@H](O)[C@H](N)C(=O)O [threonine]
[1]; amino acid alone at 105 μM in synergy with cefazolin
  survival rate: 59.4%

## N[C@@H](Cc1c[nH]c2ccccc12)C(=O)O [tryptophan]
[1]; amino acid alone at 20 μM in synergy with cefazolin
  survival rate: 67.4%

## N[C@@H](Cc1ccc(O)cc1)C(=O)O [tyrosine]
[1]; amino acid alone at 5 μM in synergy with cefazolin
  survival rate: 80.5%

## CC(C)[C@H](N)C(=O)O [valine]
[1]; amino acid alone at 136 μM in synergy with cefazolin
  survival rate: 78.8%
